In patent US8735150B2, “Methods for detecting embryonic stem cells, induced pluripotent stem cells, or cells undergoing reprogramming to produce induced pluripotent stem cells” (New York University, priority 2010, dated 2014):

Columns and labels:
human ESC (hESC) (BG01V) = test: Comparison of CDy1 and ALDEFLUOR staining in hESC; format: cell-based; conditions: fluorescence microscopy
Procedure: (§1) In this experiment, the cells cultured on 6-well plates were incubated with 1 μM ALDEFLUOR® for one hour at 37° C. and then washed with PBS three times before ALDEFLUOR® assay buffer was added. Bright field (“B.F”) and fluorescence (FITC filter for ALDEFLUOR® and TRITC filter for CDy1) images were taken using a Nikon ECLIPSE Ti fluorescence microscope (Scale bars, 100 μm).
BG01V cells cultured on MEF were selectively stained by CDy1. The expression of hESC marker TRA-1-60 in the CDy1-stained BG01V cells was detected by immunofluorescence staining (Scale bar, 100 μm).
Among the few fluorescent dyes used for stem cell staining (Zijlmans et al., “Modification of Rhodamine Staining Allows Identification of Hematopoietic Stem Cells with Preferential Short-term or Long-term Bone Marrow-Repopulating Ability,” Proc. Natl. Acad. Sci. USA, 92:8901-8905 (1995), which is hereby incorporated by reference in its entirety) is ALDEFLUOR® which employs a fluorescent substrate BODIPY-aminoacetaldehyde for aldehyde dehydrogenase (ALDH)1A1 (Storms et al., “Isolation of Primitive Human Hematopoietic Progenitors on the Basis of Aldehyde Dehydrogenase Activity,” Proc. Natl. Acad. Sci. USA, 96: 9118-9123 (1999), which is hereby incorporated by reference in its entirety). […]

iPSC = test: CDy1 staining of iPSC colonies generated from Oct4-GFP transgenic mouse MEF; format: cell-based
Procedure: The retroviral packaging cell, PlatE cell, was maintained in DMEM containing 10% FBS, 100 U/ml penicillin, 100 μg/ml streptomycin, 10 μg/mlblasticidin S, and 1 μg/ml puromycin. For the generation of retroviruses, 40 μg of each retroviral vector expressing each mouse Oct4, Sox2, Klf4, and c-Myc was transfected together using Lipofectamine™ 2000 (Invitrogen, Carlsbad, Calif.) into PlatE cells plated at a density of 8×10^6 cells/10 cm cell culture dish and cultured overnight in DMEM containing 10% FBS. Medium was changed five hours after transfection to normal maintenance medium and incubated further in a humidified atmosphere of 5% CO2 and 95% air at 37° C. Culture supernatant was harvested 48 hours after transfection, filtered through a 0.45 μm syringe filter, concentrated by using amicon ultra-15 Centrifugal filter units (Millipore, Billerica, Mass.), and stored at −80° C. until use. For reprogramming, MEFs prepared from E13.5 B6; CBA-Tg(Pou5f1-EGFP)2Mnn/J mouse (Jackson Laboratory, Bar Harbor, Me.) embryo were infected with retrovirus mixture eight hours later. Polybrene (Sigma-Aldrich, St. Louis, Mo.) was added at a concentration of 10 μg/ml to increase virus adsorption. Infected MEFs were harvested 48 hours later by trypsinization and plated onto mytomycin C treated MEF feeder cells. The cells were maintained in mESC culture medium that was changed every day until designated time points.
The reprogramming was performed in a 6-well culture dish by retroviral introduction of four transcriptions factors: Oct4, Sox2, Klf4, and c-Myc (Takahashi et al., “Induction of Pluripotent Stem Cells from Mouse Embryonic and Adult Fibroblast Cultures by Defined Factors,” Cell, 126(4):663-676 (2006), which is hereby incorporated by reference in its entirety). iPSC generation was verified by GFP expression, alkaline phosphatase assay, and immunostaining of SSEA-1 at 17 days post infection (“dpi”). […] When the 155 colonies grown in 6-well plate cells were treated with CDy1 at 17 dpi, 101 colonies (65%) were both CDy1 and GFP positive, 26 (17%) were CDy1-only positive, 4 (3%) were GFP-only positive and 24 (15%) were negative both for CDy1 and GFP, despite the fact that the morphology of the colonies was indistinguishable (FIG. 9).
In a cell culture treated with CDy1 at an earlier time point of iPSC generation (10 dpi), increasing numbers of CDy1-stained colonies started to show GFP signal during the following days (FIG. 10A). To perform a more systematic analysis, the cells were stained with CDy1 at 2 dpi (i.e., when iPSC was not distinguishable by any means) and the CDy1 and GFP signals were tracked by daily acquisition of cell images using an ImageXpress^MICRO system. At 10 dpi, when small colonies started to appear, 342 CDy1-positive but GFP-negative colonies were selected and their GFP expression was followed until 25 dpi. An increasing number of colonies started to express GFP during this period, and 338 (99%) out of the 342 tracked colonies were GFP-positive at 25 dpi (FIG. 10B).

[1] = test system: human lung cancer cell line H522; test: Comparison of CDy1 and ALDEFLUOR staining in H522; format: cell-based; conditions: fluorescence microscopy
Procedure: as §1
(§2) Among the few fluorescent dyes used for stem cell staining (Zijlmans et al., “Modification of Rhodamine Staining Allows Identification of Hematopoietic Stem Cells with Preferential Short-term or Long-term Bone Marrow-Repopulating Ability,” Proc. Natl. Acad. Sci. USA, 92:8901-8905 (1995), which is hereby incorporated by reference in its entirety) is ALDEFLUOR® which employs a fluorescent substrate BODIPY-aminoacetaldehyde for aldehyde dehydrogenase (ALDH)1A1 (Storms et al., “Isolation of Primitive Human Hematopoietic Progenitors on the Basis of Aldehyde Dehydrogenase Activity,” Proc. Natl. Acad. Sci. USA, 96: 9118-9123 (1999), which is hereby incorporated by reference in its entirety). It has been used to identify and isolate certain types of stem cells including hematopoietic, neural, and mammary stem cells as well as cancer stem cells. Whether or not ALDEFLUOR® stains ESC has not been known. […] The stemness of hESC BG01V used in this study was verified by immunocytochemical staining of TRA-1-60 (FIG. 14).

differentiated mESC = test: CDy1 staining of differentiated mESC after LIF removal; format: cell-based, mouse; conditions: three days culture without LIF
From the text: Morphologically distinguishable differentiated cells were observed after three days culture of mESC in the absence of LIF. As shown in the center panel, most of those cells were CDy1 negative, while some other cells that retained mESC morphology were stained by the dye.
On the other hand, removing the LIF from the culture media induced mESC differentiation and it was observed that some cells were morphologically distinguishable from mESC three days later. Most of the differentiated cells were not stained by CDy1, while some other cells with mESC morphology were stained by the dye showing a similar pattern with immunocytochemical staining by Oct4 antibody (FIG. 11).

[2] = test system: Oct4-GFP transgenic MEF transfected with Oct4, Sox2, Klf4 and c-Myc; test: CDy1 staining of cells at early stages of reprogramming (fluorescence microscopy); format: cell-based, mouse; conditions: incubated for one hour
Procedure: Oct4-GFP transgenic MEF transfected with retrovirus expressing Oct4, Sox2, Klf4, and c-Myc were incubated with CDy1 at 3, 5, 7, and 9 dpi for one hour.
After excess CDy1 was washed out by replacing culture medium, fluorescent cell images were taken using fluorescence microscope.
At 3 and 5 dpi, any dramatic morphological differences between the cells were not observed by phase contrast bright field microscopy (FIG. 16).

mESC = test: Comparison of CDy1 and ALDEFLUOR staining in mESC; format: cell-based, mouse; conditions: fluorescence microscopy
Procedure: as §1, §2

CCCCN(CCCC)c1ccc2c(-c3cccc(CN4CCOCC4)c3)c3ccc(=N)cc-3oc2c1 [CDy1]
staining of hESC (human ESC (hESC) (BG01V)): stained both | earliest CDy1 staining of the cells that expressed GFP at 12 dpi (iPSC): 6 dpi | differences in number of GFP-positive colonies or cell morphology compared to untreated iPSC (iPSC; 10 to 25 dpi): no detectable differences | selective staining of iPSC colony (iPSC; 17 dpi): selectively stained the iPSC colony | colonies CDy1-only positive (number) (iPSC; 17 dpi, of 155 colonies): 26 | colonies CDy1-only positive (percent) (iPSC; 17 dpi, of 155 colonies): 17% | colonies GFP-only positive (number) (iPSC; 17 dpi, of 155 colonies): 4 | colonies GFP-only positive (percent) (iPSC; 17 dpi, of 155 colonies): 3% | colonies both CDy1 and GFP positive (number) (iPSC; 17 dpi, of 155 colonies): 101 | colonies both CDy1 and GFP positive (percent) (iPSC; 17 dpi, of 155 colonies): 65% | colonies negative both for CDy1 and GFP (number) (iPSC; 17 dpi, of 155 colonies): 24 | colonies negative both for CDy1 and GFP (percent) (iPSC; 17 dpi, of 155 colonies): 15% | colonies GFP-positive at 25 dpi (percent) (iPSC; of 342 CDy1-positive but GFP-negative colonies selected at 10 dpi): 99% | colonies GFP-positive at 25 dpi (number) (iPSC; of 342 CDy1-positive but GFP-negative colonies selected at 10 dpi, stained at 2 dpi): 338 | staining of H522 [1]: not | staining of differentiated cells (differentiated mESC): not stained | staining at 3 and 5 dpi [2]: scattered single cells stained | staining at 7 and 9 dpi [2]: some of the clusters were stained | staining of mESC (mESC): stained both
